Experimental findings from PubChem BioAssay (NCI) are described below.

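Method: 48-hour compound exposure of cells in 96-well plates, five concentrations, linear interpolation of endpoints. TGI: total growth inhibition.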

Assay in all cases: NCI tumour cell line growth inhibition, 48 h
In test [1] the test system is OVCAR-5 ovarian.
Test [2] concerns SNB-75 CNS.
Test [3] relates to U251 CNS.
The test system of test [4] is HS 578T breast.
The subject of test [5] is K-562 leukemia.
Test [6] relates to COLO 205 colon.
Test [7] relates to MCF7 breast.
The subject of test [8] is CAKI-1 renal.
Test [9] has as its system SR leukemia.
The subject of test [10] is UACC-62 melanoma.

Regarding `CC1=NN(C(=O)CC(=O)Nc2ccccc2Cl)C(=O)C1N=Nc1ccc(S(=O)(=O)c2ccc(N=NC3C(=O)N(C(=O)CC(=O)Nc4ccccc4Cl)N=C3C)cc2)cc1` (stereo not given), the TGI in test [1], in test [2], in test [3], in [4], in test [5] and in test [6] was greater than 100 µM each time. The TGI in test [7], in test [8], in test [9] and in test [10] was greater than 100 µM throughout.
Take `C/C(=C\c1ccccc1)C(=O)NCc1ccc(C(=O)NCCc2ccccc2)cc1`: the TGI in test [1] was greater than 100 µM; in test [2], 19.5 µM; in [3], greater than 100 µM; in test [4], greater than 100 µM; in test [5], greater than 100 µM; in [6], greater than 100 µM. Moreover, the TGI in test [7], in test [8], in test [9] and in test [10] was greater than 100 µM each time.
`COc1ccc(/C=C/C(=O)c2cc(C(C)(C)C)c(O)c(C(C)(C)C)c2)cc1OC`: the TGI in [1] is greater than 85.8 µM; in test [2], 13.5 µM; in test [3], 29.8 µM; in test [4], greater than 77.2 µM; in test [5], greater than 89.6 µM; in test [6], 31.9 µM. Moreover, the TGI is 32.4 µM in test [7], greater than 90 µM in test [8], 5.83 µM in [9] and 40.1 µM in test [10].
Take `CSc1cc(-c2ccccn2)nc(-c2ccccn2)c1`: the TGI in test [1] was 9.46 µM; in test [2], 13.6 µM; in test [3] it was 11.7 µM; in [4], 48.9 µM; in test [5], greater than 100 µM; in test [6] it was 7.29 µM. Also, the TGI in test [7] was 10.1 µM; in test [8] it was 1.81 µM; in [9], greater than 100 µM; in test [10] it was 1.23 µM.
Turning to `O=C(CCCCCC(=O)N1CC(CCl)c2ccc([N+](=O)[O-])cc21)N1CC(CCl)c2ccc([N+](=O)[O-])cc21` (stereo not given), the TGI in test [1], in test [2], in test [3], in test [4], in test [5] and in test [6] was greater than 100 µM each time. Besides, the TGI in test [7] was greater than 100 µM; in test [8], greater than 100 µM; in test [9] it was 88.8 µM; in [10] it was greater than 100 µM.
Consider `COC1CC(OC2C(C)OC(OC3C(C)OC(OC4C(O)CC(O[C@H]5CC[C@@]6(C)C(=CC[C@]7(O)[C@@H]6C[C@@H](OC(C)=O)[C@@]6(C)[C@]7(O)CC[C@@]6(O)C(C)=O)C5)OC4C)CC3OC)CC2OC)OC(C)C1O` (stereo not given in full), for which the TGI in test [1], in test [2], in test [3], in [4], in test [5] and in [6] was greater than 12.5 µM each time. The TGI in test [7], in test [8], in [9] and in test [10] was greater than 12.5 µM each time.
`COC(=O)C1=C(OC(=O)/C=C/c2ccccc2)C(C(=O)OC)[C@@]2(O)[C@@H](C(=O)OC)[C@H](C)C[C@@H]1[C@@H]2C(=O)OC` (stereo not given in full): the TGI in [1] is 46.1 µM; in test [2], 73.1 µM; in test [3] it was 45.6 µM; in test [4], 50.1 µM; in test [5] it was greater than 100 µM; in test [6], 74.8 µM. Also, the TGI in test [7] was 91.4 µM; in test [8] it was 32.6 µM; in [9], greater than 100 µM; in [10], 33.1 µM.
`CCOC(=O)C[n+]1cccc(C2(c3cc4ccccc4[nH]3)OCCO2)c1`: the TGI in test [1], in test [2], in test [3], in test [4], in test [5] and in [6] was greater than 100 µM throughout. The TGI in test [7], in test [8], in test [9] and in test [10] was greater than 100 µM in each case.
Take `C(=N\Nc1ccc(-c2nc3ccccc3[nH]2)cc1)/c1c(-c2ccc(Cc3ccccc3)cc2)[nH]c2ccccc12`: the TGI in [1] is greater than 100 µM; in [2], 41.2 µM; in test [3] it was greater than 51.2 µM; in test [4], 23 µM; in test [5], greater than 100 µM; in test [6], 19.8 µM. For the same compound, the TGI in test [7] was greater than 48.8 µM; in [8], greater than 59.8 µM; in [9], greater than 100 µM; in test [10], greater than 54.3 µM.
As for `C=C1C(=O)O[C@H]2[C@H]3O[C@@H](C[C@@H]12)[C@@]1(C)CC[C@H](O1)[C@H](C)CCC[C@H]3C`, the TGI came to 3.38 µM in [1]; 3.15 µM in test [2]; 2.82 µM in [3]; 12.4 µM in [4]; 3.59 µM in [5]; 3.33 µM in test [6]. Further, the TGI is 3.98 µM in test [7], 2.58 µM in test [8], 0.448 µM in test [9] and 6.32 µM in [10].
On to `CC(=O)OCc1cncn1S(=O)(=O)c1ccc(C)cc1`, for which the TGI in test [1], in test [2], in test [3], in [4], in [5] and in test [6] was greater than 100 µM throughout. The TGI in [7], in [8], in test [9] and in test [10] was greater than 100 µM in each case.
Take `COc1ccc(/C=C2\CCS(=O)(=O)c3ccccc3C2=O)cc1OC`: the TGI is greater than 100 µM in [1]; 98.4 µM in test [2]; greater than 100 µM in test [3]; greater than 100 µM in [4]; greater than 100 µM in test [5]; greater than 100 µM in test [6]. The TGI was greater than 100 µM in [7], greater than 100 µM in [8], 89.1 µM in test [9] and 76.6 µM in test [10].
Take `O=C1Nc2ccccc2Cn2c1cc1oc(-c3ccccc3)cc12`: the TGI in test [1] was greater than 100 µM; in test [2] it was 64.2 µM; in [3] it was 36.3 µM; in [4], 44.3 µM; in test [5] it was greater than 100 µM; in test [6] it was greater than 100 µM. Also, the TGI in test [7], in test [8], in test [9] and in test [10] was greater than 100 µM in each case.
